pIC50: −log10 of the molar value.
Assays:
hERG = hERG (Homo sapiens, UniProt Q12809); assay: Hs1a off-target voltage-gated potassium channel, hERG; format: cell-based
Experimental: Hs1a was isolated from the venom of the Chinese bird spider, Haplopelma schmidti. To assess the selectivity of Hs1a for Nav channel subtypes, Hs1a was tested on HEK cells stably transfected with human Nav1.1-Nav1.7 channels using automated patch clamp techniques. […] The IC50 value for hNav1.7 obtained in mammalian cells correlates with the IC50 obtained by two-electrode voltage clamp on hNav1.7 expressed in X. laevis oocytes. The selectivity of Hs1a for off-target voltage-gated calcium and potassium channels were also tested.

hNav1.2 = biological target: T1, hNav1.2 (Homo sapiens, UniProt Q99250); assay: automated whole-cell patch clamp (QPatch 16X), HEK293-hNav1.2; format: cell-based; conditions: HEK293 cells stably expressing human channel; read-out: IC50 Nav1.2
T1 construct: host or cells: HEK293

mouse sciatic nerves [1] = assay: confocal microscopy / histology of sciatic nerve sections after injection; format: in vivo; conditions: 30 min
Experimental: Confocal Microscopy. 5 or 10 μm cryosections of OCT-embedded sciatic nerve tissues from mice intravenously injected with Hsp1a-FL (7 nmol, 68 μM of Hsp1a-FL in 100 μL of PBS), Hsp1a/Hsp1a-FL (Hsp1a-FL, 68 μM, 7 nmol, and Hsp1a 204 μM, 21 nmol in 100 μL PBS), Hs1a-FL (4 nmol, 45 μM of Hs1a-FL in 100 μL of PBS), with the block Hs1a/Hs1a-FL (Hs1a-FL, 45 μM, 4 nmol and Hs1a 120 μM, 12 nmol in 100 μL PBS) or PBS were used to determine the distribution and localization of fluorescently-tagged peptide. Animal organs were incubated with Hoechst 33342 (blue, 20 μM, 1 nmol in 50 μL of PBS) to counterstain nuclei before embedding in Mowiol mounting medium. Fresh tissue samples were counterstained with 33342 (blue, 20 μM, 1 nmol in 50 μL of PBS) up to 90 min post-mortem and placed directly on a microscope slide for imaging.

hNav1.1 = biological target: T2, hNav1.1 (Homo sapiens, UniProt P35498); assay: automated whole-cell patch clamp (QPatch 16X), HEK293-hNav1.1; format: cell-based; conditions: HEK293 cells stably expressing human channel; read-out: IC50 Nav1.1
T2 construct: host or cells: HEK293

hNav1.5 = biological target: T3, hNav1.5 (Homo sapiens, UniProt Q14524); assay: automated whole-cell patch clamp (QPatch 16X), HEK293-hNav1.5; format: cell-based; conditions: HEK293 cells stably expressing human channel; read-out: IC50 Nav1.5
T3 construct: host or cells: HEK293

hNav1.3 = biological target: T4, hNav1.3 (Homo sapiens, UniProt Q9NY46); assay: automated whole-cell patch clamp (QPatch 16X), HEK293-hNav1.3; format: cell-based; conditions: HEK293 cells stably expressing human channel; read-out: IC50 Nav1.3
T4 construct: host or cells: HEK293

mouse sciatic nerves [2] = assay: epifluorescence imaging (IVIS Spectrum) of sciatic nerves and organs 30 min after injection; format: in vivo; conditions: 30 min
Experimental: Animal Model. Female athymic nude mice (4-8 week-old, athymic-Nude (outbred) (Stock #: 088; Envigo, USA) were allowed to acclimatize at the Memorial Sloan Kettering Cancer Center (MSK) vivarium for 1 week with ad libitum food and water prior to the experimental procedure. For imaging experiments, animals were sacrificed 30 min post-tail vein injection of Hs1a-FL, Hs1a/Hs1a-FL, Hsp1a-FL, Hsp1a/Hsp1a-FL, or PBS. All animal experiments were performed in accordance with institutional guidelines and approved by the IACUC of MSK, following NIH guidelines for animal welfare.
Epifluorescence Imaging. Animals were intravenously injected with Hsp1a-FL (7 nmol, 68 μM of Hsp1a-FL in 100 μL of PBS, n=9), or Hs1a-FL (4 nmol, 45 μM of Hs1a-FL in 100 μL of PBS, n=3). To assess the specificity of the Hsp1a-FL or Hs1a-FL accumulation, animals were injected with a combination of Hsp1a and Hsp1a-FL (Hsp1a-FL, 68 μM, 7 nmol and Hsp1a 204 μM, 21 nmol in 100 μL PBS, n=9), Hs1a and Hs1a-FL (Hs1a-FL, 45 μM, 4 nmol and Hs1a, 120 μM, 12 nmol in 100 μL PBS, n=3) or PBS (n=9). Animals were sacrificed 30 min post-injection and epifluorescence images obtained. Epifluorescence images of the right sciatic nerve (RSN) and the left sciatic nerve (LSN) were obtained in situ. Epifluorescence of the biodistribution of the peptides in excited RSN, LSN, muscle, heart, kidney, liver, and brain were acquired with IVIS Spectrum (PerkinElmer) using a predefined GFP filterset (e.g., excitation=465/30 nm, emission=520-580 nm) based on the particular fluorophore employed in the compounds. Autofluorescence was removed through spectral unmixing. Semiquantitative analysis of the Hsp1a-FL or Hs1a-FL signal was conducted by measuring the average radiant efficiency (in units of unit [p/s/cm^2/sr]/[μW/cm^2]) in regions of interest (ROIs) that were placed on all resected organs under white light guidance.

hNav1.7 = biological target: T5, hNav1.7 (Homo sapiens, UniProt Q15858); assay: automated whole-cell patch clamp (QPatch 16X), HEK293-hNav1.7; format: cell-based; conditions: HEK293 cells stably expressing human channel; read-out: IC50 Nav1.7
T5 construct: host or cells: HEK293

hNav1.6 = biological target: T6, hNav1.6 (Homo sapiens, UniProt Q9UQD0); assay: automated whole-cell patch clamp (QPatch 16X), HEK293-hNav1.6; format: cell-based; conditions: HEK293 cells stably expressing human channel; read-out: IC50 Nav1.6
T6 construct: host or cells: HEK293

hNav1.4 = biological target: T7, hNav1.4 (Homo sapiens, UniProt P35499); assay: automated whole-cell patch clamp (QPatch 16X), HEK293-hNav1.4; format: cell-based; conditions: HEK293 cells stably expressing human channel; read-out: IC50 Nav1.4
T7 construct: host or cells: HEK293

[3] = 4 nmol plus 12 nmol unmodified Hs1a

T5 sequence (Q15858 whole entry): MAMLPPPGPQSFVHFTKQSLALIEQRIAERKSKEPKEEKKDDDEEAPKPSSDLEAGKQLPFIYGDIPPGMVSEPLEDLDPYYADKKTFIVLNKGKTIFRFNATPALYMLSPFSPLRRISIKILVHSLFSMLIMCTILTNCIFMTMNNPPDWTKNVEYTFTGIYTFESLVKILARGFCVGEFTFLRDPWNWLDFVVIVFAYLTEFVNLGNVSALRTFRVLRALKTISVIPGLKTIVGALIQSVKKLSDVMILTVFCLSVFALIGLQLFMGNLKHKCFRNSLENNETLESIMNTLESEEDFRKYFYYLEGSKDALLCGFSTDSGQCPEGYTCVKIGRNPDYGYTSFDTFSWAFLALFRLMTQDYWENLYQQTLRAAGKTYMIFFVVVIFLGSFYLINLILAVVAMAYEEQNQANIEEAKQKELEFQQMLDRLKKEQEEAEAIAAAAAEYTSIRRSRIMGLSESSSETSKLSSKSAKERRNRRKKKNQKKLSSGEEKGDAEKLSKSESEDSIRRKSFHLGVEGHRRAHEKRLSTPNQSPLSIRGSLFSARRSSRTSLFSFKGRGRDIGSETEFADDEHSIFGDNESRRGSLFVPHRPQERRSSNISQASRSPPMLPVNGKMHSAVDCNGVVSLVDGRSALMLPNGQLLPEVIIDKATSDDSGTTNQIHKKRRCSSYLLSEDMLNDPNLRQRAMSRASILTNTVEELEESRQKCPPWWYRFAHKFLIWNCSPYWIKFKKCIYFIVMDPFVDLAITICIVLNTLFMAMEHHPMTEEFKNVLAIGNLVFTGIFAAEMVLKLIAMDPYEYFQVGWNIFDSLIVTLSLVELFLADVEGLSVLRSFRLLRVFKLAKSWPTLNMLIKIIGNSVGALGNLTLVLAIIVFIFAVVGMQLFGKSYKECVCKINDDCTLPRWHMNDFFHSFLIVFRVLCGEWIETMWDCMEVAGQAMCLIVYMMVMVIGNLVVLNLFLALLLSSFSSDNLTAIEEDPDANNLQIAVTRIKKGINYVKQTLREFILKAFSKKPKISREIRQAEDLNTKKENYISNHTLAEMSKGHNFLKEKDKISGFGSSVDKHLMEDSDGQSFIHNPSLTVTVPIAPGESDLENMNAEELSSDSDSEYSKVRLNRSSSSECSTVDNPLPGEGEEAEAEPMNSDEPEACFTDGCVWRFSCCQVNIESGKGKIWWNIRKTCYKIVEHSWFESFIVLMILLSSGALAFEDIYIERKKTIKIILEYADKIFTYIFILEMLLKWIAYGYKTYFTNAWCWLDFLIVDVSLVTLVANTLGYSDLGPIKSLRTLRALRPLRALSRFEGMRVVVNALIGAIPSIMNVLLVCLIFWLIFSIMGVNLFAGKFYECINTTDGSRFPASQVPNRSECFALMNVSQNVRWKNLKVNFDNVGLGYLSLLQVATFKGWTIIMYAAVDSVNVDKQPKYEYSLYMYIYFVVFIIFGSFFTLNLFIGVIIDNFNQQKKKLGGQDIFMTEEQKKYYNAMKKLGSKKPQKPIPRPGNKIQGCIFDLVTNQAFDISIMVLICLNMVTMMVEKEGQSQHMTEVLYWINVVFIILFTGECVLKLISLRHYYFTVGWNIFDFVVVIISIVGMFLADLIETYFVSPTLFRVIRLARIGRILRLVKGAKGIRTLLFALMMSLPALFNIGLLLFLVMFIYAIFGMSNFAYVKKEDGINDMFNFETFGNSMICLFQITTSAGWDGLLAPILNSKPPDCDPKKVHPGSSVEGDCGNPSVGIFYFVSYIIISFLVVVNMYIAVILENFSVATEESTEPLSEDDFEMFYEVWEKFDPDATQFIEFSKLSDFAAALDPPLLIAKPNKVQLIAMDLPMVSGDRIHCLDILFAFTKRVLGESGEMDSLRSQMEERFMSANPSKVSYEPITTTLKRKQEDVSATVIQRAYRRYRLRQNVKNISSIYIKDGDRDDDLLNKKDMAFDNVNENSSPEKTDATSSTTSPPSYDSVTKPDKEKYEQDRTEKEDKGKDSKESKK
T5 sequence (Q07699 19-218, further chain): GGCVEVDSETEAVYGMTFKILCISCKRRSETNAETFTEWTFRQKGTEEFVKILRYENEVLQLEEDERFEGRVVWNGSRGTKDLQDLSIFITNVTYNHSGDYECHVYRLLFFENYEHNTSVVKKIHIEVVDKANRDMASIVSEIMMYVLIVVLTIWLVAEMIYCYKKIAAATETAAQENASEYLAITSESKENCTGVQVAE
T7 sequence (P35499 whole entry): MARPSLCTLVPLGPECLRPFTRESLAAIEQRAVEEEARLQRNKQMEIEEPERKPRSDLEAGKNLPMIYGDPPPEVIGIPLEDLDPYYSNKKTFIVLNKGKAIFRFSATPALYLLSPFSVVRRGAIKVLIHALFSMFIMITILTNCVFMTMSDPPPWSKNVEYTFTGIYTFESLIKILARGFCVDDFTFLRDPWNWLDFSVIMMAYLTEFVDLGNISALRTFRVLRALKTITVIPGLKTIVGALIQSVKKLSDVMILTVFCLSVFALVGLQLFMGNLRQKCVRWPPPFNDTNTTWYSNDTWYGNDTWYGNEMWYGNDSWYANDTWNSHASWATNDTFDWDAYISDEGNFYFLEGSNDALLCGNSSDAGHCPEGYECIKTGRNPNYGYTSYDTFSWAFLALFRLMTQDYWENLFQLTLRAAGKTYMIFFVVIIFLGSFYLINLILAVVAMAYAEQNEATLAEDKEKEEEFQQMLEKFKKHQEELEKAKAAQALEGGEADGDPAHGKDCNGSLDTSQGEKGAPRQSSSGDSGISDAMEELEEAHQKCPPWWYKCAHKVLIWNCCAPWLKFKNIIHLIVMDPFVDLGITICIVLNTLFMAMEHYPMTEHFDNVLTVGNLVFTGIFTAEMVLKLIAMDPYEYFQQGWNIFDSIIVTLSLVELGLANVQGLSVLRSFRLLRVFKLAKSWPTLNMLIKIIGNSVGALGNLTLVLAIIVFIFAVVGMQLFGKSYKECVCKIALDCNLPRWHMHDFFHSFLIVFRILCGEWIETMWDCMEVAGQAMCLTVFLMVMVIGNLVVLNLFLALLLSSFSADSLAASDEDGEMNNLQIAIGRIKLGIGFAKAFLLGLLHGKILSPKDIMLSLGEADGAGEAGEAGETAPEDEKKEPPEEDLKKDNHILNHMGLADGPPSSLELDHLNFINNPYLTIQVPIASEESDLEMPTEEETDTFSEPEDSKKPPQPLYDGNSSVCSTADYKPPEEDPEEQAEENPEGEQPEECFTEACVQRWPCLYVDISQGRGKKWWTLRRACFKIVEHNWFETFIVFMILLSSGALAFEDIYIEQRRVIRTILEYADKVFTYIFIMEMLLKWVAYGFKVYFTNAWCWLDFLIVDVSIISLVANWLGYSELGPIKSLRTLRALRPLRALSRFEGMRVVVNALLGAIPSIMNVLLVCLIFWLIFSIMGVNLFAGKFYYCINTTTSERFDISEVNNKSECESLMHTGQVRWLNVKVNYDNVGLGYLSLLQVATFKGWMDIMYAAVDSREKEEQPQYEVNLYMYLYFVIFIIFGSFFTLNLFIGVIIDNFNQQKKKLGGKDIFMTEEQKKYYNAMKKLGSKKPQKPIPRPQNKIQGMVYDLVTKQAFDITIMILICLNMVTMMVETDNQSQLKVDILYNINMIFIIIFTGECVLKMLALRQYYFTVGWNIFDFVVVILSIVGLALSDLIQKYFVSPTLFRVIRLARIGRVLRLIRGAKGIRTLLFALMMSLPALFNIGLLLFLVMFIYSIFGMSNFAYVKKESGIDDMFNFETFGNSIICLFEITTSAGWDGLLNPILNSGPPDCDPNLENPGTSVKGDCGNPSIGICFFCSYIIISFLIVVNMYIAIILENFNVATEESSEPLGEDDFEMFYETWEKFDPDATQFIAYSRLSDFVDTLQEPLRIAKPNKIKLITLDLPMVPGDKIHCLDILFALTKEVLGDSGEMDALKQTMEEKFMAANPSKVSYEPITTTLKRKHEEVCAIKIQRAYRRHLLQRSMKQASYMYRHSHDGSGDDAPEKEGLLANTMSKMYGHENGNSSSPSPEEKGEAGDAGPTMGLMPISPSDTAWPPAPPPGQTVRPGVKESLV
T7 sequence (Q07699 19-218, further chain): as the sequence (Q07699 19-218, further chain) above

| SMILES | pIC50 (hERG) | pIC50 (hNav1.2) | signal in sciatic nerve sections (mouse sciatic nerves [1]; 4 nmol i.v. alone) | signal in sciatic nerve sections, blocked mice (mouse sciatic nerves [1]; [3]) | pIC50 (hNav1.1) | pIC50 (hNav1.5) | pIC50 (hNav1.3) | radiant efficiency, resected sciatic nerves (mouse sciatic nerves [2]; 4 nmol i.v. alone) | radiant efficiency, brain (mouse sciatic nerves [2]; 4 nmol i.v.) | radiant efficiency, kidney (mouse sciatic nerves [2]; 4 nmol i.v.) | radiant efficiency, liver (mouse sciatic nerves [2]; 4 nmol i.v.) | radiant efficiency, spleen (mouse sciatic nerves [2]; 4 nmol i.v.) | radiant efficiency, resected sciatic nerves, co-injection (blocking) (mouse sciatic nerves [2]; [3]) | pIC50 (hNav1.7) | pIC50 (hNav1.6) | pIC50 (hNav1.4) |
| --- | --- | --- | --- | --- | --- | --- | --- | --- | --- | --- | --- | --- | --- | --- | --- | --- |
| CC(C)C[C@H](NC(=O)[C@H](CCCCN)NC(=O)CNC(=O)[C@H](CCCCN)NC(=O)[C@@H]1CSSC[C@@H]2NC(=O)[C@H](CCCCN)NC(=O)[C@H](CC(=O)O)NC(=O)[C@H](CC(N)=O)NC(=O)[C@H](CCCCN)NC(=O)[C@@H]3CCCN3C(=O)[C@H](CC(N)=O)NC(=O)[C@@H]3CSSC[C@H](NC(=O)[C@H](C(C)C)NC(=O)[C@H](CC(C)C)NC(=O)[C@H](CC(N)=O)NC(=O)[C@H](C)NC(=O)[C@H](CSSC[C@H](NC(=O)[C@H](CC(=O)O)NC(=O)[C@H](CC(N)=O)NC(=O)CN)C(=O)N[C@@H](CC(C)C)C(=O)NCC(=O)N[C@@H](Cc4ccccc4)C(=O)N[C@@H](Cc4c[nH]c5ccccc45)C(=O)N[C@@H](CO)C(=O)N[C@@H](C)C(=O)N3)NC2=O)C(=O)N[C@@H](CO)C(=O)N[C@@H](CO)C(=O)N[C@@H](CCCCN)C(=O)N[C@@H](Cc2c[nH]cn2)C(=O)N[C@@H](CCCCN)C(=O)N[C@@H](Cc2c[nH]c3ccccc23)C(=O)N1)C(=O)O [Hs1a] | < 5.52 |  |  |  |  |  |  |  |  |  |  |  |  |  |  |  |
| CC(C)C[C@H](NC(=O)[C@H](CCCCN)NC(=O)CNC(=O)[C@H](CCCCN)NC(=O)[C@@H]1CSSC[C@@H]2NC(=O)[C@H](CCCCN)NC(=O)[C@H](CC(=O)O)NC(=O)[C@H](CC(N)=O)NC(=O)[C@H](CCCCNC(=O)CCCCC[N+]3=C(/C=C/C4=CC(=C/C=C5/N(C)c6ccc7ccccc7c6C5(C)C)/CCC4)C(C)(C)c4c3ccc3ccccc43)NC(=O)[C@@H]3CCCN3C(=O)[C@H](CC(N)=O)NC(=O)[C@@H]3CSSC[C@H](NC(=O)[C@H](C(C)C)NC(=O)[C@H](CC(C)C)NC(=O)[C@H](CC(N)=O)NC(=O)[C@H](C)NC(=O)[C@H](CSSC[C@H](NC(=O)[C@H](CC(=O)O)NC(=O)[C@H](CC(N)=O)NC(=O)CN)C(=O)N[C@@H](CC(C)C)C(=O)NCC(=O)N[C@@H](Cc4ccccc4)C(=O)N[C@@H](Cc4c[nH]c5ccccc45)C(=O)N[C@@H](CO)C(=O)N[C@@H](C)C(=O)N3)NC2=O)C(=O)N[C@@H](CO)C(=O)N[C@@H](CO)C(=O)N[C@@H](CCCCN)C(=O)N[C@@H](Cc2c[nH]cn2)C(=O)N[C@@H](CCCCN)C(=O)N[C@@H](Cc2c[nH]c3ccccc23)C(=O)N1)C(=O)O [Hs1a-FL] |  | 7.09 | confirmed the presence of Hs1a-FL signal | No signal was detected | 7.71 | < 5.52 | 6.97 | 1.6±0.3×10^5 [p/s/cm^2/sr]/[μW/cm^2] | 0.2±0.1×10^7 [p/s/cm^2/sr]/[μW/cm^2] | 1.4±1.1×10^7 [p/s/cm^2/sr]/[μW/cm^2] | 3.0±2.0×10^7 [p/s/cm^2/sr]/[μW/cm^2] | 0.8±0.5×10^7 [p/s/cm^2/sr]/[μW/cm^2] | 0.09±0.03×10^5 [p/s/cm^2/sr]/[μW/cm^2] | 7.57 | 7.72 | < 5.52 |
